Assay results taken from publication PMC9120017, “Inhibition mechanism of the chloride channel TMEM16A by the pore blocker 1PBC” (Nature Communications, 2022).
Like-named read-outs stand apart in the source and are kept apart here.

Target: T1, mouse TMEM16A mutant G558P (Mus musculus, UniProt Q8BHY3, G558P)
T1 construct: expressed in transfected cells; host or cells: HEK293T
T1 sequence (Q8BHY3 1-960 G558P): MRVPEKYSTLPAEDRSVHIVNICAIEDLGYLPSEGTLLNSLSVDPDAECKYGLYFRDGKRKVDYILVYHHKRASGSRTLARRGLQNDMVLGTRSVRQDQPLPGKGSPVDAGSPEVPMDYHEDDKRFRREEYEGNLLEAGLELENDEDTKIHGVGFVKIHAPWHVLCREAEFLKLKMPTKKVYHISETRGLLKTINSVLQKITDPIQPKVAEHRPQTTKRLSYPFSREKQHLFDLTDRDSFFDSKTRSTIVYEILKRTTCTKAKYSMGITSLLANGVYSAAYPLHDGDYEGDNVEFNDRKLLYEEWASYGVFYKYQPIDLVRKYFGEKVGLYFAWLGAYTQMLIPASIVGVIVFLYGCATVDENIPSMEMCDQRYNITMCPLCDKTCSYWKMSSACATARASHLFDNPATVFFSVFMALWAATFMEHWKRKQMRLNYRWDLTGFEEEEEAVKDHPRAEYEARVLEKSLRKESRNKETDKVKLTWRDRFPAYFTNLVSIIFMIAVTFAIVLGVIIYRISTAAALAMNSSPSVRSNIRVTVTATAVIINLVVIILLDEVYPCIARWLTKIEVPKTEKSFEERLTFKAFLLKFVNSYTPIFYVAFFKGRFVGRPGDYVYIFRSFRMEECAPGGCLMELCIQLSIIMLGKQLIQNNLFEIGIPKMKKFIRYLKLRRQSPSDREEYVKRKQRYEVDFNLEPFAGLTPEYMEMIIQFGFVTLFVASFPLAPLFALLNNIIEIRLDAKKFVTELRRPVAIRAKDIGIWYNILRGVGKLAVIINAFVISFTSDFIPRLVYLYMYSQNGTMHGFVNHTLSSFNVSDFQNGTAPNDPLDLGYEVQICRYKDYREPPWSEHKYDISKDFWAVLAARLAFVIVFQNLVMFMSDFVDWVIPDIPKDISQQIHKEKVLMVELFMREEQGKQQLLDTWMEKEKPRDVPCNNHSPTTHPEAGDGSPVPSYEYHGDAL
Assay: Inside-out patch recording of 1PBC block, mutant G558P
Type: cell-based
Conditions: for remaining activity at 1 µM: 1PBC conc 1; for remaining activity at 1 µM / remaining activity at 3 µM / remaining activity at 10 µM / remaining activity at 30 µM / remaining activity at 100 µM: read-out: relative current in 1PBC (avr); for remaining activity at 3 µM: 1PBC conc 3; for remaining activity at 10 µM: 1PBC conc 10; for remaining activity at 30 µM: 1PBC conc 30; for remaining activity at 100 µM: 1PBC conc 100
Procedure: HEK293T cells (ATCC CRL-1573) were maintained in Dulbecco’s modified Eagle’s medium (DMEM; Sigma-Aldrich) supplemented with 10 U ml^−1 penicillin, 0.1 mg ml^−1 streptomycin (Sigma-Aldrich), 2 mM L-glutamine (Sigma-Aldrich), and 10% FBS (Sigma-Aldrich) in a humidified atmosphere containing 5% CO2 at 37 °C. HEK293S GnTI^− cells (ATCC CRL-3022) were maintained in HyClone HyCell TransFx-H medium (GE Healthcare) supplemented with 10 U ml^−1 penicillin, 0.1 mg ml^−1 streptomycin, 4 mM L-glutamine, 0.15% poloxamer 188 (Sigma-Aldrich), and 1% FBS in an atmosphere containing 5% CO2 at 185 rpm at 37 °C. The ac splice variant of mouse TMEM16A (UniProt ID: Q8BHY3), mouse TMEM16B (UniProt ID: Q8CFW1), or mouse TMEM16F (UniProt ID: Q6P9J9) bearing a 3C cleavage site, a Venus YFP, a Myc tag, and a Streptavidin-binding peptide (SBP) downstream of the open reading frame in a modified pcDNA3.1 vector (Invitrogen) were used as described previously[21],[31]. Mutations were introduced using a modified QuikChange method[58] and were verified by sequencing.
HEK293T cells were transfected with 3–4 μg DNA per 6 cm Petri dish using the calcium phosphate co-precipitation method and were used within 24–96 h after transfection. Recordings were performed on inside-out patches excised from HEK293T cells expressing the construct of interest. Patch pipettes were pulled from borosilicate glass capillaries (O.D. 1.5 mm, I.D. 0.86 mm, Sutter Instrument) and were fire-polished with a microforge (Narishige) before use. Pipette resistance was typically 3–8 MΩ when filled with the recording solutions detailed below. Seal resistance was typically 4 GΩ or higher. Voltage-clamp recordings were made using Axopatch 200B, Digidata 1550, and Clampex 10.7 (Molecular Devices). Analog signals were filtered with the in-built 4-pole Bessel filter at 10 kHz and were digitized at 20 kHz. Solution exchange was achieved using a gravity-fed system through a theta glass pipette mounted on an ultra-fast piezo-driven stepper (Siskiyou). […] All recordings were performed at 20 °C.
A symmetrical ionic condition was used throughout. Stock solution with Ca^2+-EGTA contained 150 mM NaCl, 5.99 mM Ca(OH)2, 5 mM EGTA, and 10 mM HEPES at pH 7.40. Stock solution with EGTA contained 150 mM NaCl, 5 mM EGTA, and 10 mM HEPES at pH 7.40. Free Ca^2+ concentrations were adjusted by mixing the stock solutions at the required ratios calculated using the WEBMAXC program (http://web.stanford.edu/~cpatton/webmaxcS.htm). Patch pipettes were filled with the stock solution with Ca^2+-EGTA, which has a free Ca^2+ concentration of 1 mM. 1PBC (ChemBridge) stock was reconstituted in anhydrous DMSO (Sigma-Aldrich) at 100 mM and stored at −20 °C. Working solutions with 1PBC were prepared by serial dilution. Unless otherwise stated, experiments were performed at a saturating Ca^2+ concentration as shown in Supplementary Table 1 and the primary data were corrected for current rundown as described previously[21],[25].
Concentration-response relations, obtained from the ratio of the I-V plots before and after the application of the blocker, were fitted to the Hill equation,1 I/Imax=1/1+IC50/[blocker]^h where I/Imax is the normalized current responses, IC50 defines the concentration at which inhibition is at its half-maximum, and h is the Hill coefficient.

With `N#Cc1c(C(F)(F)F)cc(O)n2c1nc1ccccc12` [1PBC] the IC50 (0 mV, 15 µM Ca2+) was 6.23 µM, the remaining activity at 1 µM (0 mV) was 83.9% and the remaining activity at 3 µM (0 mV) was 66.6%. For the same compound, the remaining activity at 10 µM (0 mV) was 39.1%, the remaining activity at 30 µM (0 mV) was 18.8% and the remaining activity at 100 µM (0 mV) was 7.07%. For the same compound, the “I/Imax_+80mV” value (1 μM 1PBC) was 0.7511, the I/Imax_-80mV (1 μM 1PBC, -80 mV) was 0.9508 and the “I/Imax_+80mV” value (3 μM 1PBC) was 0.5097. For the same compound, the I/Imax_-80mV (3 μM 1PBC, -80 mV) was 0.8567, the “I/Imax_+80mV” value (10 μM 1PBC) was 0.2409 and the I/Imax_-80mV (10 μM 1PBC, -80 mV) was 0.6177. For the same compound, the “Effect of mutation G558P on block by 1PBC” value (15 µM Ca2+) was “did not interfere with block”, the “I/Imax_+80mV” value (30 μM 1PBC) was 0.1115 and the I/Imax_-80mV (30 μM 1PBC, -80 mV) was 0.3696. The “I/Imax_+80mV” value (100 μM 1PBC) was 0.03071, the I/Imax_-80mV (100 μM 1PBC, -80 mV) was 0.1483 and the IC50 (20 mV, 15 µM Ca2+) was 4.87 µM. For the same compound, the remaining activity at 1 µM (20 mV) was 81.1%, the remaining activity at 3 µM (20 mV) was 60.9% and the remaining activity at 10 µM (20 mV) was 34%. The remaining activity at 30 µM (20 mV) was 15.5%, the remaining activity at 100 µM (20 mV) was 5.33% and the IC50 (40 mV, 15 µM Ca2+) was 3.94 µM. It also gave a remaining activity at 1 µM (40 mV) of 78.3%, a remaining activity at 3 µM (40 mV) of 56.7% and a remaining activity at 10 µM (40 mV) of 28.5%. It also gave a remaining activity at 30 µM (40 mV) of 13.4%, a remaining activity at 100 µM (40 mV) of 4.84% and an IC50 (60 mV, 15 µM Ca2+) of 3.4 µM. For the same compound, the remaining activity at 1 µM (60 mV) was 75.9%, the remaining activity at 3 µM (60 mV) was 52.9% and the remaining activity at 10 µM (60 mV) was 26.1%. It also gave a remaining activity at 30 µM (60 mV) of 12%, a remaining activity at 100 µM (60 mV) of 3.75% and an IC50 (80 mV, 15 µM Ca2+) of 3.14 µM. It also gave a remaining activity at 1 µM (80 mV) of 75.1%, a remaining activity at 3 µM (80 mV) of 51% and a remaining activity at 10 µM (80 mV) of 24.1%. For the same compound, the remaining activity at 30 µM (80 mV) was 11.2%, the remaining activity at 100 µM (80 mV) was 3.07% and the IC50 (100 mV, 15 µM Ca2+) was 3.03 µM. The remaining activity at 1 µM (100 mV) was 75.6%, the remaining activity at 3 µM (100 mV) was 50.3% and the remaining activity at 10 µM (100 mV) was 22.1%. For the same compound, the remaining activity at 30 µM (100 mV) was 10.7%, the remaining activity at 100 µM (100 mV) was 2.38% and the IC50 (120 mV, 15 µM Ca2+) was 3.26 µM. It also gave a remaining activity at 1 µM (120 mV) of 77.2%, a remaining activity at 3 µM (120 mV) of 52.2% and a remaining activity at 10 µM (120 mV) of 23.4%. The remaining activity at 30 µM (120 mV) was 10.7%, the remaining activity at 100 µM (120 mV) was 2.42% and the IC50 (140 mV, 15 µM Ca2+) was 3.86 µM. For the same compound, the remaining activity at 1 µM (140 mV) was 81.4%, the remaining activity at 3 µM (140 mV) was 57% and the remaining activity at 10 µM (140 mV) was 25.2%. It also gave a remaining activity at 30 µM (140 mV) of 12%, a remaining activity at 100 µM (140 mV) of 3.17% and an IC50 (-20 mV, 15 µM Ca2+) of 7.94 µM. The remaining activity at 1 µM (-20 mV) was 86.7%, the remaining activity at 3 µM (-20 mV) was 72.3% and the remaining activity at 10 µM (-20 mV) was 44.1%. For the same compound, the remaining activity at 30 µM (-20 mV) was 22.2%, the remaining activity at 100 µM (-20 mV) was 8.82% and the IC50 (-40 mV, 15 µM Ca2+) was 10.4 µM. It also gave a remaining activity at 1 µM (-40 mV) of 89.5%, a remaining activity at 3 µM (-40 mV) of 77.5% and a remaining activity at 10 µM (-40 mV) of 50.6%. It also gave a remaining activity at 30 µM (-40 mV) of 26.7%, a remaining activity at 100 µM (-40 mV) of 9.6% and an IC50 (-60 mV, 15 µM Ca2+) of 13.4 µM. It also gave a remaining activity at 1 µM (-60 mV) of 92.1%, a remaining activity at 3 µM (-60 mV) of 80.7% and a remaining activity at 10 µM (-60 mV) of 56.7%. It also gave a remaining activity at 30 µM (-60 mV) of 32.1%, a remaining activity at 100 µM (-60 mV) of 12.3% and an IC50 (-80 mV, 15 µM Ca2+) of 17.1 µM. The remaining activity at 1 µM (-80 mV) was 95.1%, the remaining activity at 3 µM (-80 mV) was 85.7% and the remaining activity at 10 µM (-80 mV) was 61.8%. It also gave a remaining activity at 30 µM (-80 mV) of 37%, a remaining activity at 100 µM (-80 mV) of 14.8% and an IC50 (-100 mV, 15 µM Ca2+) of 21.1 µM. The remaining activity at 1 µM (-100 mV) was 96.1%, the remaining activity at 3 µM (-100 mV) was 88.1% and the remaining activity at 10 µM (-100 mV) was 66.8%. The remaining activity at 30 µM (-100 mV) was 41.5%, the remaining activity at 100 µM (-100 mV) was 17.8% and the IC50 (-120 mV, 15 µM Ca2+) was 25.4 µM. The remaining activity at 1 µM (-120 mV) was 98.5%, the remaining activity at 3 µM (-120 mV) was 90.8% and the remaining activity at 10 µM (-120 mV) was 71.2%. It also gave a remaining activity at 30 µM (-120 mV) of 45.8%, a remaining activity at 100 µM (-120 mV) of 19.8% and an IC50 (-140 mV, 15 µM Ca2+) of 30 µM. The remaining activity at 1 µM (-140 mV) was 100%, the remaining activity at 3 µM (-140 mV) was 92.8% and the remaining activity at 10 µM (-140 mV) was 74.7%. It also gave a remaining activity at 30 µM (-140 mV) of 49.7%, a remaining activity at 100 µM (-140 mV) of 22.2% and an IC50 (G558P, V 0 mV) of 6.23 µM. For the same compound, the IC50 (G558P, V 20 mV) was 4.87 µM, the IC50 (G558P, V 40 mV) was 3.94 µM and the IC50 (G558P, V 60 mV) was 3.4 µM. For the same compound, the IC50 (G558P, V 80 mV) was 3.14 µM, the IC50 (G558P, V 100 mV) was 3.03 µM and the IC50 (G558P, V 120 mV) was 3.26 µM. The IC50 (G558P, V 140 mV) was 3.86 µM, the IC50 (G558P, V -20 mV) was 7.94 µM and the IC50 (G558P, V -40 mV) was 10.4 µM. For the same compound, the IC50 (G558P, V -60 mV) was 13.4 µM, the IC50 (G558P, V -80 mV) was 17.1 µM and the IC50 (G558P, V -100 mV) was 21.1 µM. It also gave an IC50 (G558P, V -120 mV) of 25.4 µM and an IC50 (G558P, V -140 mV) of 30 µM.
